We go through 27 molecules from US20230250060A1 (IFM Due, Inc., priority 2022, published 2023).

This assay concerns the target T1, STING (Homo sapiens, UniProt Q86WV6, G230A/H232R/R293Q/R71H).
T1 construct: host or cells: THP1-Dual KO-IFNAR2 cells
The assay is described as follows: STING reporter assay (luciferase) in THP1-Dual KO-IFNAR2 cells stimulated with 2′3′cGAMP. In kind it is cell-based. The conditions noted are these: 2′3′cGAMP 15 μM final, 24 h, luciferase reporter activity, read-out: Pharmaron, THP1_IFNAR2 STING 24 h Luci Normalized: GeoMean EC50. As for the experimental part:
STING pathway activation by the compounds described herein was measured using TTIP1-Dual™ cells (KO-IFNAR2).
TTIP1-Dual™ KO-IFNAR2 Cells (obtained from invivogen) were maintained in RPMI, 10% FCS, 5 ml P/S, 2 mM L-glut, 10 mM Hepes, and 1 mM sodium pyruvate. Compounds were spotted in empty 384 well tissue culture plates (Greiner 781182) by Echo for a final concentration of 0.0017-100 μM. Cells were plated into the TC plates at 40 μL per well, 2×10E6 cells/mL. For activation with STING ligand, 2′3′cGAMP (MW 718.38, obtained from Invivogen), was prepared in Optimem media.
The following solutions were prepared for each 1×384 plate: • Solution A: 2 mL Optimem with one of the following stimuli: • […] • Solution B: 2 mL Optimem with […] Lipofectamine 2000→Incubate 5 min at RT
2 mL of solution A and 2 ml Solution B was mixed and incubated for 20 min at room temperature (RT). 20 μL of transfection solution (A+B) was added on top of the plated cells, with a final 2′3′cGAMP concentration of 15 μM. The plates were then centrifuged immediately at 340 g for 1 minute, after which they were incubated at 37° C., 5% CO2, >98% humidity for 24 h. Luciferase reporter activity was then measured. EC50 values were calculated by using standard methods known in the art.
Luciferase reporter assay: 10 μL of supernatant from the assay was transferred to white 384-plate with flat bottom and squared wells. One pouch of QUANTI-Luc™ Plus was dissolved in 25 mL of water. 100 μL of QLC Stabilizer per 25 mL of QUANTI-Luc™ Plus solution was added. 50 μL of QUANTI-Luc™ Plus/QLC solution per well was then added. Luminescence was measured on a Platereader (e.g., Spectramax I3X (Molecular Devices GF3637001)).
Luciferase reporter activity was then measured. EC50 values were calculated by using standard methods known in the art.
(In general: A reporter such as luciferase makes a cellular process visible.)

T1 sequence (Q86WV6 whole entry R71H/G230A/H232R/R293Q): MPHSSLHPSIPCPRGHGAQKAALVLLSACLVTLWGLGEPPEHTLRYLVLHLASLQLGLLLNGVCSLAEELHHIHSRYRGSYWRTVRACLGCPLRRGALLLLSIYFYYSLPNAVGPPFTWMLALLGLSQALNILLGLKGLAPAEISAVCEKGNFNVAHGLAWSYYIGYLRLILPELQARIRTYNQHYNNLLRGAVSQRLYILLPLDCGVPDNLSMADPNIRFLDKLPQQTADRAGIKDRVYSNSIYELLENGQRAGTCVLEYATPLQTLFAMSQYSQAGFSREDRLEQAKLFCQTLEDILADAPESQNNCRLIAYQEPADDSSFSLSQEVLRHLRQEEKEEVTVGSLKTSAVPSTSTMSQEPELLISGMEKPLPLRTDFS

The term EC50 denotes the midpoint of the concentration-response curve. Turning to `O=C(Nc1c[nH]c2ccc(OCc3ccc(C(F)(F)F)cc3)cc12)C1CC12CC2` (stereo not drawn) [Compound 101, N-(5-((4-(trifluoromethyl)benzyl)oxy)-1H-indol-3-yl)spiro[2.2]pentane-1-carboxamide], the EC50 was in the range of 200 to 1000 nM.
`O=C(CC1CC1)Nc1c[nH]c2ccc(O[C@H]3C[C@@H](c4ccc(C(F)(F)F)cc4)C3)cc12` [Compound 102, 2-cyclopropyl-N-(5-((1s,3s)-3-(4-(trifluoromethyl)phenyl)cyclobutoxy)-1H-indol-3-yl)acetamide]: the EC50 lay within 40 to 200 nM.
For the molecule `Cn1nccc1C(=O)Nc1c[nH]c2ccc(CCOc3ccc(C(F)(F)F)cc3)cc12` [Compound 103, 1-methyl-N-(5-(2-(4-(trifluoromethyl)phenoxy)ethyl)-1H-indol-3-yl)-1H-pyrazole-5-carboxamide], the EC50 was in the range of 200 to 1000 nM.
As to `O=C(Nc1c[nH]c2ccc(CCOc3ccc(C(F)(F)F)cc3)cc12)C1CC12CCC2` (stereo not drawn) [Compound 104, N-(5-(2-(4-(trifluoromethyl)phenoxy)ethyl)-1H-indol-3-yl)spiro[2.3]hexane-1-carboxamide], the concentration giving a half-maximal response (EC50) fell in the range of 200 to 1000 nM.
To `N#CC12CC(C(=O)Nc3c[nH]c4ccc(OCCc5ccc(C(F)(F)F)cc5)cc34)(C1)C2` [Compound 106, 3-cyano-N-(5-(4-(trifluoromethyl)phenethoxy)-1H-indol-3-yl)bicyclo[1.1.1]pentane-1-carboxamide] belongs 200 to 1000 nM; to `CC12CC(C(=O)Nc3c[nH]c4ccc(OCCc5ccc(C(F)(F)F)cc5)cc34)(C1)C2` [Compound 107, 3-methyl-N-(5-(4-(trifluoromethyl)phenethoxy)-1H-indol-3-yl)bicyclo[1.1.1]pentane-1-carboxamide], 200 to 1000 nM; to `O=C(Nc1c[nH]c2ccc(OCCc3ccc(C(F)(F)F)cc3)cc12)C12CC(F)(C1)C2` [Compound 108, 3-fluoro-N-(5-(4-(trifluoromethyl)phenethoxy)-1H-indol-3-yl)bicyclo[1.1.1]pentane-1-carboxamide], 200 to 1000 nM.
For `O=C(Nc1c[nH]c2ccc(OCCc3ccc(C(F)(F)F)cc3)cc12)c1ncccc1F` [Compound 109, 3-fluoro-N-(5-(4-(trifluoromethyl)phenethoxy)-1H-indol-3-yl)picolinamide], the EC50 lay in the range of 200 to 1000 nM.
Turning to `O=C(Nc1c[nH]c2ccc(OCCc3ccc(C(F)(F)F)cc3)cc12)c1nccs1` [Compound 110, N-(5-(4-(trifluoromethyl)phenethoxy)-1H-indol-3-yl)thiazole-2-carboxamide], the EC50 was in the range of 200 to 1000 nM.
Turning to `Cc1oncc1C(=O)Nc1c[nH]c2ccc(OCCc3ccc(C(F)(F)F)cc3)cc12` [Compound 111], the EC50 fell in the range of 5000 to 100000 nM.
On to `Cc1noc(C)c1C(=O)Nc1c[nH]c2ccc(OCCc3ccc(C(F)(F)F)cc3)cc12` [Compound 112, 3,5-dimethyl-N-(5-(4-(trifluoromethyl)phenethoxy)-1H-indol-3-yl)isoxazole-4-carboxamide], for which the EC50 is 200 to 1000 nM.
To `O=C(Nc1c[nH]c2ccc(OCCc3ccc(C(F)(F)F)cc3)cc12)c1cncs1` [Compound 113, N-(5-(4-(trifluoromethyl)phenethoxy)-1H-indol-3-yl)thiazole-5-carboxamide] belongs 200 to 1000 nM.
Take `O=C(Nc1c[nH]c2ccc(OCCc3ccc(C(F)(F)F)cc3)cc12)c1cscn1` [Compound 114, N-(5-(4-(trifluoromethyl)phenethoxy)-1H-indol-3-yl)thiazole-4-carboxamide]: the EC50 fell in the range of 200 to 1000 nM.
Next, `O=C(Nc1c[nH]c2ccc(CCOc3ccc(C(F)(F)F)cc3)cc12)C12CC(F)(C1)C2` [Compound 116, 3-fluoro-N-(5-(2-(4-(trifluoromethyl)phenoxy)ethyl)-1H-indol-3-yl)bicyclo[1.1.1]pentane-1-carboxamide]: 200 to 1000 nM; `O=C(Nc1c[nH]c2ccc(CCOc3ccc(C(F)(F)F)cc3)cc12)c1ncccc1F` [Compound 117, 3-fluoro-N-(5-(2-(4-(trifluoromethyl)phenoxy)ethyl)-1H-indol-3-yl)picolinamide]: 200 to 1000 nM; `Cc1oncc1C(=O)Nc1c[nH]c2ccc(CCOc3ccc(C(F)(F)F)cc3)cc12` [Compound 118]: 5000 to 100000 nM.
With `Cc1noc(C)c1C(=O)Nc1c[nH]c2ccc(CCOc3ccc(C(F)(F)F)cc3)cc12` [Compound 119, 3,5-dimethyl-N-(5-(2-(4-(trifluoromethyl)phenoxy)ethyl)-1H-indol-3-yl)isoxazole-4-carboxamide], the EC50 is 200 to 1000 nM.
As for `O=C(Nc1c[nH]c2ccc(CCOc3ccc(C(F)(F)F)cc3)cc12)c1cncs1` [Compound 120, N-(5-(2-(4-(trifluoromethyl)phenoxy)ethyl)-1H-indol-3-yl)thiazole-5-carboxamide], the EC50 is 200 to 1000 nM.
Consider `O=C(Nc1c[nH]c2ccc(OCCc3ccc(C(F)(F)F)cc3)cc12)c1ccncc1` [Compound 121, N-(5-(4-(trifluoromethyl)phenethoxy)-1H-indol-3-yl)isonicotinamide], for which the EC50 lay within 200 to 1000 nM.
`O=C(Nc1c[nH]c2ccc(OCCc3ccc(C(F)(F)F)cc3)cc12)c1ccn[nH]1` [Compound 122, N-(5-(4-(trifluoromethyl)phenethoxy)-1H-indol-3-yl)-1H-pyrazole-5-carboxamide]: the EC50 lay in the range of 40 to 200 nM.
`O=C(Nc1c[nH]c2ccc(OCCc3ccc(C(F)(F)F)cc3)cc12)c1cccnc1` [Compound 123, N-(5-(4-(trifluoromethyl)phenethoxy)-1H-indol-3-yl)nicotinamide]: the EC50 lay within 200 to 1000 nM.
Take `O=C(Nc1c[nH]c2ccc(OCCc3ccc(C(F)(F)F)cc3)cc12)c1ccccn1` [Compound 124, N-(5-(4-(trifluoromethyl)phenethoxy)-1H-indol-3-yl)picolinamide]: the EC50 fell in the range of 1000 to 5000 nM.
Turning to `O=C(CC1CC1)Nc1c[nH]c2ccc(OCCc3ccc(C(F)(F)F)cc3)cc12` [Compound 125, 2-cyclopropyl-N-(5-(4-(trifluoromethyl)phenethoxy)-1H-indol-3-yl)acetamide], the EC50 lay in the range of 40 to 200 nM.
For `O=C(Nc1c[nH]c2ccc(OCCc3ccc(C(F)(F)F)cc3)cc12)C1CC12CC2` (stereo not drawn) [Compound 126, N-(5-(4-(trifluoromethyl)phenethoxy)-1H-indol-3-yl)spiro[2.2]pentane-1-carboxamide], the EC50 was 40 to 200 nM.
To `Cc1nnc(C(=O)Nc2c[nH]c3ccc(O[C@H]4C[C@H](c5ccc(C(F)(F)F)cc5)C4)cc23)s1` [Compound 127, 5-methyl-N-(5-((1r,3r)-3-(4-(trifluoromethyl)phenyl)cyclobutoxy)-1H-indol-3-yl)-1,3,4-thiadiazole-2-carboxamide] belongs 200 to 1000 nM; to `Cn1cc(C(=O)Nc2c[nH]c3ccc(O[C@H]4C[C@H](c5ccc(C(F)(F)F)cc5)C4)cc23)nn1` [Compound 128, 1-methyl-N-(5-((1r,3r)-3-(4-(trifluoromethyl)phenyl)cyclobutoxy)-1H-indol-3-yl)-1H-1,2,3-triazole-4-carboxamide], 200 to 1000 nM.
Turning to `N#CC12CC(C(=O)Nc3c[nH]c4ccc(COCc5ccc(C(F)(F)F)cc5)cc34)(C1)C2` [Compound 129, 3-cyano-N-(5-(((4-(trifluoromethyl)benzyl)oxy)methyl)-1H-indol-3-yl)bicyclo[1.1.1]pentane-1-carboxamide], the EC50 was 200 to 1000 nM.
